Key:
[1] = system: A549 (lung epithelial cells); assay: Cytotoxicity against mammalian cell line; assay type: cell-based
Description: The cytotoxicity of the TPP COEs was also tested against a mammalian cell line (A549).

PAO1 [2] = assay: Live-dead staining (SYTO-9/PI) fluorescence microscopy; assay type: cell-based, P. aeruginosa; conditions: PAO1, 16 μg mL^−1 for 30 minutes
Description: Membrane damage induced by COE treatment was also confirmed by fluorescence microscopy. A combination of SYTO-9 and PI is commonly employed as a live-dead stain to distinguish cells with permeabilized membranes. […] Combined with PI, the contrast between the colours is employed as a visual indicator of membrane damage. PAO1 cells exposed to 16 μg mL^−1 of DM6P for 30 minutes were subsequently stained with both dyes and imaged directly.
Cell membrane integrity was determined using LIVE/DEAD™ BacLight™ bacterial viability kit L7007 (ThermoFisher, USA) according to the manufacturer's protocol. Bacteria cells were collected from mid-log cultures by centrifugation (7000 rpm, 10 minutes). The media was removed, and the bacteria was washed with PBS twice and diluted to a concentration of about 1×10^7 CFU per mL. […] A mixture of the dyes SYTO-9 and PI dissolved in DMSO were added to the suspension at final concentrations of 5 μM and 30 μM respectively. The bacteria were then incubated in the dark for 15 min. Samples were prepared by aliquoting 5 μl onto a clean glass slide, trapped with an 18 mm coverslip and imaged on an epifluorescence microscope (Leica Thunder Imager).

MRSA = assay: Resistance development by serial passaging at 0.5× MIC; assay type: cell-based, S. aureus
Description: (§1) The non-specific action of membrane-active antibiotics lends itself to minimal development of resistance development due to the large metabolic burden involved, unlike traditional antibiotics with a well-defined enzymatic target. Based on this premise, we passaged bacteria incubated with DM6P, or ciprofloxacin (control), at 0.5× MIC to investigate the adaptation of bacteria towards external antibiotic stress. As a control, treatment of MRSA with ciprofloxacin gave rise to antibiotic-resistant mutants within 4 passages, see FIG. 4a. […] Combined with its broad spectrum of activity, this feature opens opportunities for the use of COE antimicrobial agents to address polymicrobial infections with a lower rate of emerging antibiotic resistance.

[3] = system: M. abscesses (ATCC 19977); assay: MIC against mycobacterium in Middlebrook 7H9 broth; assay type: cell-based, M. abscessus
Description: We also examined non-tuberculous mycobacteria (NTM). These are opportunistic pathogens that are rising in clinical significance due to their increasing prevalence and treatment difficulty. The membrane of Mycobacterium is inherently a greater antibiotic permeability barrier due to its high lipid content relative to other pathogens and long-tailed mycolic acids that contributed to its high lipophilic character. The antimicrobial activity of the TPP analogues were also evaluated against Mycobacterium in Middlebrook 7H9 broth.

P. aeruginosa = assay: Resistance development by serial passaging at 0.5× MIC; assay type: cell-based
Description: as §1

PAO1 [4] = assay: Propidium iodide influx assay; assay type: cell-based, P. aeruginosa; conditions: PAO1, 2 to 8 μg mL^−1 (half to twice the MIC)
From the text: Another hallmark of cytoplasmic membrane damage is an enhanced permeability towards small molecules. Propidium iodide (PI) is a membrane-impermeant organic dye that can be used to study potential mechanisms of action of antibiotics due to its enhanced fluorescence intensity upon binding to intracellular DNA. Treatment with molecules that cause membrane perturbations enable rapid influx of the dye, resulting in an increase in fluorescence emission that can be monitored over time. […] This difference hints at two plausible mechanisms of action that are concentration dependent. Similar observations have been made for tobramycin, where a protein inhibition mode of action at lower concentrations (<4 μg mL^−1) is supplanted by disruption of the outer membrane at higher concentrations (8 μg mL^−1).
The assay was performed according to a modified reported protocol.^4 Briefly, the corresponding bacteria was collected from mid-log cultures by centrifugation (7000 rpm, 10 minutes) and washed thrice with PBS. The pellet was then resuspended in the same buffer and diluted to an optical density of 2 by extrapolation. […] Fluorescence intensity was measured over time in a plate reader with an excitation wavelength of 525 nm and emission wavelength of 620 nm. Fluorescence signals were measured every 30 seconds and carried out in triplicate.

[5] = system: P. aeruginosa (ATCC47085); assay: Minimum bactericidal concentration (MBC); assay type: cell-based; conditions: strain PA (PAO1); unit printed in b207 only
Description: (§2) To study the extent to which TPP-COEs can effectively kill bacteria, bacteria cells treated with DM6P at varying concentrations were plated onto Tryptic Soy Agar (TSA) and the minimum bactericidal concentration (MBC), where complete eradication of the inoculum occurred, was determined (Table 5). MBC values ranged from 2 μg mL^−1 towards MRSA to 8 μg mL^−1 towards PAO1 and stayed within a two to four-fold range of the MIC values for all strains tested.
(§3) Bacteria samples treated with DM6P at varying concentrations from a broth microdilution method in a 96-well plate according to the methods for determining the MIC. Colonies were plated on TSB agar plates with 20 μL inoculation and the plates incubated at 37° C. overnight. […] All measurements were performed in triplicate.

[6] = system: E. faecalis OG1RF (ATCC 47077); assay: Minimum bactericidal concentration (MBC); assay type: cell-based; conditions: strain EF; unit printed in b207 only
Description: as §2, §3

[7] = system: E. coli. K12 (ATCC 10798); assay: Minimum bactericidal concentration (MBC); assay type: cell-based; conditions: strain EC; unit printed in b207 only
Description: as §2, §3

[8] = system: Methicillin-resistant S. aureus (ATCC BAA1717); assay: Minimum bactericidal concentration (MBC); assay type: cell-based; conditions: strain MRSA; unit printed in b207 only
Description: as §2, §3

A. baumanii (ATCC 17978) = assay: Minimum bactericidal concentration (MBC); assay type: cell-based; conditions: strain AB; unit printed in b207 only
Description: as §2, §3

[9] = system: K. pneumoniae (ATCC BAA1705); assay: Minimum bactericidal concentration (MBC); assay type: cell-based; conditions: strain CRKP; unit printed in b207 only
Description: as §2, §3

PA = assay: MIC in physiological-mimicking environments (MHB); assay type: cell-based, P. aeruginosa
From the text: The complexities of the physiological environment often influence drug activity, particularly when cations in solution are implicated in their oligomerization-dependent mechanisms of action, such as for daptomycin. Binding of free drug to plasma proteins effectively reduces the available free concentration of the drug capable of killing bacteria, resulting in lower observable activity. We tested MIC values of DM4P and DM6P in the presence of human serum albumin (40 g L^−1) and high salt concentrations (Table 4). Under these conditions, the antimicrobial activity was minimally affected by these environmental factors, with MICs remaining within a 2-fold level.

SMILES: COc1cc(/C=C/c2ccc(OCCCCCC[P+](c3ccccc3)(c3ccccc3)c3ccccc3)c(OC)c2)ccc1OCCCCCC[P+](c1ccccc1)(c1ccccc1)c1ccccc1.[I-].[I-] [DM6P]
- IC50 [1]: 11 µg/mL
- PI staining in live-dead stain (PAO1 [2]): clear staining by PI
- resistance development (MRSA): did not induce any observable resistant mutants
- MIC M. abscesses [3]: 8 µg/mL
- resistance development (P. aeruginosa): did not induce any observable resistant mutants
- PI influx (PAO1 [4]): increase in PI influx appeared to be independent of concentration
- MBC [5]: 8 µg/mL
- MBC [6]: 4 µg/mL
- MBC [7]: 2 µg/mL
- MBC [8]: 2 µg/mL
- MBC (A. baumanii (ATCC 17978)): 32 µg/mL
- MBC [9]: 16 µg/mL
- MIC CaCl2 (PA; CaCl2 1 mM): 4 µg/mL
- MIC MgCl2 (PA; MgCl2 1.25mM): 4 µg/mL
- MIC NaCl (PA; NaCl 300 mM): 8 µg/mL
- MIC HSA (PA; human serum albumin 40 g L^−1): 8 µg/mL
- MIC — (PA; no additive): 4 µg/mL

Source: US20260215432A1, “ANTIMICROBIAL CONJUGATED OLIGOELECTROLYTES AND METHODS THEREOF” (National University of Singapore, priority 2023, published 2026)
